According to patent EP1699833B1, “OLIGOMERS CONTAINING N-ACETYL GLUCOSAMINE” (Council of Scientific and Industrial Research, priority 2003, dated 2005):

Target: lysozyme (Gallus gallus, UniProt P00698)
Assay: Relative inhibition of lysozyme (lysis of Micrococcus lysodeikticus, absorbance at 450 nm)
Type: biochemical
Conditions: Micrococcus lysodeikticus substrate, phosphate buffer pH 6.2, 20° C; for IC50: read-out: I50; for Imax: maximum inhibition; for concentration at maximum inhibition: concentration at Imax
Method: This example describes estimation of relative inhibition of lysozyme by polyvalent oligomer containing NAG
1.5 % w/v stock solutions of oligomer containing NAG was prepared in 0.0066 M phosphate buffer pH 6.2 containing 0.0154 m sodium chloride and 0.008 M sodium azide. One milliliter of stock solution containing different ligand concentration was mixed with 1.6 ml of 78 µg1ml of Micrococcus lysodeikticus in a 3-ml capacity lass cuvette. The mixture was incubated for 5 minutes at 20° C. To this mixture 0.1 ml of lysozyme (27 µg1ml) was added and mixed thoroughly. The absorbance at 450 nm (Δ450) was recorded for 30 seconds. A blank reading without the polymer ligand was noted and the change in the absorbance per second was calculated.

Chain of lysozyme (P00698 19-147): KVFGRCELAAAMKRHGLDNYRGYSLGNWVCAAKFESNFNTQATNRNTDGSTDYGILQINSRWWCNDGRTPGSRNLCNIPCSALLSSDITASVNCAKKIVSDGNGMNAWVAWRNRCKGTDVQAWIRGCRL

Compound | IC50 [mM] | Imax | concentration at maximum inhibition [mM]
C=CC(=O)OCC1OC(O)C(NC(C)=O)C(O)C1O (stereo not shown) [Ac .NAG, Acryloyl N-Acetyl Glucosamine] | 14.8 | 50.00 | –
CC(=O)N[C@H]1C(O)O[C@H](CO)[C@@H](O)[C@@H]1O (stereo partly shown) [NAG, N-Acetyl Glucosamine] | – | 55.29 | 92.50
Methacryloyl N-Acetyl Glucosamine [M.Ac. NAG] | 18.1 | 71.89 | 21.2
